Experimental data from US11612606B2, “8-aminoisoquinoline compounds and uses thereof” (priority 2018, dated 2023).

Target: HPK full length, T165E S171E (Homo sapiens (Human), UniProt Q92918, S171E/T165E)
Assay: HPK1-FL HTRF enzymatic assay ("HTRF")
Format: biochemical
Details: ATP 1 mM, read-out: HPK1 Ki
Protocol: Assay Principle: HPK-FL enzyme phosphorylates Biotin-SLP-76 substrate in the presence of ATP at […] and varying concentrations of test compound. Product is detected by FRET using Eu-anti-pSLP76 Ab and SA-XL665. Also see www.cisbio.com/HTRF for additional HTRF technology information.
Instrumentation: Echo555 compound dispenser; Agilent Bravo; Perkin Elmer Envision.
To a 384 well Proxiplate with 80 nL compound or DMSO spotted on was added 4 μl/well kinase mix. The mixture was preincubated for 30 minutes and then 4 μl/well substrate mix was added. The solution was incubated for 60 min and then 4 μl/well detection mix was added. The solution was incubated for another 60 min.
Exemplary compounds were tested in the HTRF binding assays.

Sequence of HPK full length, T165E S171E (Q92918 whole entry T165E/S171E, looked up): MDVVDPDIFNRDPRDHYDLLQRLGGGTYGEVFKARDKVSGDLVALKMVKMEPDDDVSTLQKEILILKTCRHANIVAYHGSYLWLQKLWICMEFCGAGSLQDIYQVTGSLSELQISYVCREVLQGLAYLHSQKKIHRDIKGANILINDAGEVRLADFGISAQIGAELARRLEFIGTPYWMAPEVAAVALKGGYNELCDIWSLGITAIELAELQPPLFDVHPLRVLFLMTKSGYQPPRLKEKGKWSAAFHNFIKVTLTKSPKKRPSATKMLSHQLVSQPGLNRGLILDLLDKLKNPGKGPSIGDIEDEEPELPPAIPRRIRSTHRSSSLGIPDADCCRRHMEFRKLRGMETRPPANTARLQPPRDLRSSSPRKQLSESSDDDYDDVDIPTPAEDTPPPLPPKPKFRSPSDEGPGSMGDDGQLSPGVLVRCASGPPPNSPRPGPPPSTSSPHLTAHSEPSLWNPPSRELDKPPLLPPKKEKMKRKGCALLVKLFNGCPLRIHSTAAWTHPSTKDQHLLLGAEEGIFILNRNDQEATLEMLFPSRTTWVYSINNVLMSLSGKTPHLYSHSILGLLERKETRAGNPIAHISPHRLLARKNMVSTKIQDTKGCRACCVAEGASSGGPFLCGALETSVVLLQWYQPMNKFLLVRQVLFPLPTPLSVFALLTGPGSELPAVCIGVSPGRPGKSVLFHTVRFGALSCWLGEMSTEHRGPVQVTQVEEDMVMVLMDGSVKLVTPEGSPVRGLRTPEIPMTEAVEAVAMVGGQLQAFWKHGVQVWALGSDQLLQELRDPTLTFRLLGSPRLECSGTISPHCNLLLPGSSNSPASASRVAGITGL

Row | SMILES | Ki
1 | Cc1c(-c2cc3cc(NC(=O)O[C@@H]4CCN(CC(F)F)C[C@@H]4F)ncc3c(N)c2F)cnc2c1NCCO2 (single isomer, unassigned) [Compound 566a] | 0.293 nM
2 | Cc1c(-c2cc3cc(NC(=O)O[C@H]4CCN(CC(F)F)C[C@H]4F)ncc3c(N)c2F)cnc2c1NCCO2 (single isomer, unassigned) [Compound 566b] | 0.149 nM
3 | Cc1c(-c2cc3cc(NC(=O)O[C@H]4COC[C@@H]4C)ncc3c(N)c2F)cnc2c1NC[C@H](F)O2 (single isomer, unassigned) [Compound 567a] | 0.33 nM
4 | Cc1c(-c2cc3cc(NC(=O)O[C@H]4COC[C@@H]4C)ncc3c(N)c2F)cnc2c1NC[C@@H](F)O2 (single isomer, unassigned) [Compound 567b] | 0.119 nM
5 | Cc1c(-c2cc3cc(NC(=O)O[C@H]4CO[C@@H]5OCC[C@@H]54)ncc3c(N)c2F)cnc2c1NCCO2 (single isomer, unassigned) [Compound 568a] | 0.185 nM
6 | Cc1c(-c2cc3cc(NC(=O)O[C@@H]4CO[C@H]5OCC[C@H]54)ncc3c(N)c2F)cnc2c1NCCO2 (single isomer, unassigned) [Compound 568b] | 0.018 nM
7 | Cc1c(-c2cc3cc(NC(=O)O[C@H]4C[C@@H]([C@H](C)O)C4)ncc3c(N)c2F)cnc2c1NCCO2 (single isomer, unassigned) [Compound 573a] | 0.015 nM
8 | Cc1c(-c2cc3cc(NC(=O)O[C@H]4C[C@H]([C@H](C)O)C4)ncc3c(N)c2F)cnc2c1NCCO2 (single isomer, unassigned) [Compound 573b] | 0.019 nM
9 | Cc1c(-c2cc3cc(NC(=O)O[C@H]4C[C@H]([C@@H](C)O)C4)ncc3c(N)c2F)cnc2c1NCCO2 (single isomer, unassigned) [Compound 573c] | 0.017 nM
10 | Cc1c(-c2cc3cc(NC(=O)O[C@H]4C[C@@H]([C@@H](C)O)C4)ncc3c(N)c2F)cnc2c1NCCO2 (single isomer, unassigned) [Compound 573d] | < 0.013 nM
11 | Cc1c(-c2cc3cc(NC(=O)O[C@@H]4Cc5ncnn5C4)ncc3c(N)c2F)cnc2c1NCCO2 (single isomer, unassigned) [Compound 578a] | 0.028 nM
12 | Cc1c(-c2cc3cc(NC(=O)O[C@H]4Cc5ncnn5C4)ncc3c(N)c2F)cnc2c1NCCO2 (single isomer, unassigned) [Compound 578b] | 0.15 nM
13 | Cc1c(-c2cc3cc(NC(=O)O[C@H]4CC[C@@H](O)C4)ncc3c(N)c2F)cnc2c1NCCO2 (single isomer, unassigned) [Compound 582a] | 0.02 nM
14 | Cc1c(-c2cc3cc(NC(=O)O[C@@H]4CC[C@H](O)C4)ncc3c(N)c2F)cnc2c1NCCO2 (single isomer, unassigned) [Compound 582b] | 0.02 nM
15 | CO[C@H]1COCC[C@@H]1OC(=O)Nc1cc2cc(-c3cnc4c(c3C)NCCO4)c(F)c(N)c2cn1 (single isomer, unassigned) [Compound 583a] | 0.12 nM
16 | CO[C@H]1COCC[C@H]1OC(=O)Nc1cc2cc(-c3cnc4c(c3C)NCCO4)c(F)c(N)c2cn1 (single isomer, unassigned) [Compound 583b] | 0.021 nM
17 | CO[C@@H]1COCC[C@@H]1OC(=O)Nc1cc2cc(-c3cnc4c(c3C)NCCO4)c(F)c(N)c2cn1 (single isomer, unassigned) [Compound 583c] | 0.099 nM
18 | CO[C@@H]1COCC[C@H]1OC(=O)Nc1cc2cc(-c3cnc4c(c3C)NCCO4)c(F)c(N)c2cn1 (single isomer, unassigned) [Compound 583d] | 0.72 nM
19 | Cc1c(-c2cc3cc(NC(=O)O[C@H]4C[C@@H](O)C4)ncc3c(N)c2F)cnc2c1NC[C@@H]1C[C@H]21 (single isomer, unassigned) [Compound 584a] | 0.14 nM
20 | Cc1c(-c2cc3cc(NC(=O)O[C@H]4C[C@@H](O)C4)ncc3c(N)c2F)cnc2c1NC[C@H]1C[C@@H]21 (single isomer, unassigned) [Compound 584b] | 2.1 nM
21 | Cc1c(-c2cc3cc(NC(=O)N[C@@H]4CCN(C)C[C@H]4F)ncc3c(N)c2F)cnc2c1NCCO2 (single isomer, unassigned) [Compound 703a] | 0.022 nM
22 | Cc1c(-c2cc3cc(NC(=O)N[C@H]4CCN(C)C[C@@H]4F)ncc3c(N)c2F)cnc2c1NCCO2 (single isomer, unassigned) [Compound 703b] | < 0.013 nM

Row | SMILES | Ki
23 | Cc1c(-c2cc3cc(NC(=O)N[C@H]4CCN(C)C[C@H]4F)ncc3c(N)c2F)cnc2c1NCCO2 (single isomer, unassigned) [Compound 703c, (±)-1-(8-Amino-7-fluoro-6-(8-methyl-2,3-dihydro-1H-pyrido[2,3-b][1,4]oxazin-7-yl)isoquinolin-3-yl)-3-((cis)-3-fluoro-1-methylpiperidin-4-yl)urea] | 0.03 nM
24 | CC(=O)N1CC[C@H](NC(=O)Nc2cc3cc(-c4cnc5c(c4C)NCCO5)c(F)c(N)c3cn2)[C@H](F)C1 (single isomer, unassigned) [Compound 710a, (±)-1-((cis)-1-Acetyl-3-fluoropiperidin-4-yl)-3-(8-amino-7-fluoro-6-(8-methyl-2,3-dihydro-1H-pyrido[2,3-b][1,4]oxazin-7-yl)isoquinolin-3-yl)urea] | < 0.013 nM
25 | Cc1c(-c2cc3cc(NC(=O)N[C@H]4CCCOC4)ncc3c(N)c2F)cnc2c1NCCO2 (single isomer, unassigned) [Compound 711a] | < 0.013 nM
26 | Cc1c(-c2cc3cc(NC(=O)N[C@@H]4CCCOC4)ncc3c(N)c2F)cnc2c1NCCO2 (single isomer, unassigned) [Compound 711b] | < 0.013 nM
27 | Cc1c(-c2cc3cc(NC(=O)N[C@@H]4CCOC4)ncc3c(N)c2F)cnc2c1NCCO2 (single isomer, unassigned) [Compound 722a] | < 0.013 nM
28 | Cc1c(-c2cc3cc(NC(=O)N[C@H]4CCOC4)ncc3c(N)c2F)cnc2c1NCCO2 (single isomer, unassigned) [Compound 722b] | < 0.013 nM
29 | CO[C@@H]1COC[C@@H]1NC(=O)Nc1cc2cc(-c3cnc4c(c3C)NCCO4)c(F)c(N)c2cn1 (single isomer, unassigned) [Compound 723a] | 0.469 nM
30 | CO[C@H]1COC[C@H]1NC(=O)Nc1cc2cc(-c3cnc4c(c3C)NCCO4)c(F)c(N)c2cn1 (single isomer, unassigned) [Compound 723b] | 0.029 nM
31 | Cc1c(-c2cc3cc(NC(=O)N[C@H]4COC[C@H]4F)ncc3c(N)c2F)cnc2c1NCCO2 (single isomer, unassigned) [Compound 724a] | 0.019 nM
32 | Cc1c(-c2cc3cc(NC(=O)N[C@@H]4COC[C@@H]4F)ncc3c(N)c2F)cnc2c1NCCO2 (single isomer, unassigned) [Compound 724b] | 0.019 nM
33 | Cc1c(-c2cc3cc(NC(=O)N[C@@H]4CC[C@H](C#N)C4)ncc3c(N)c2F)cnc2c1NCCO2 (single isomer, unassigned) [Compound 726a] | < 0.013 nM
34 | Cc1c(-c2cc3cc(NC(=O)N[C@H]4CC[C@@H](C#N)C4)ncc3c(N)c2F)cnc2c1NCCO2 (single isomer, unassigned) [Compound 726b] | 0.016 nM
35 | CO[C@@H]1CCC[C@@H]1NC(=O)Nc1cc2cc(-c3cnc4c(c3C)NCCO4)c(F)c(N)c2cn1 (single isomer, unassigned) [Compound 729a] | 1.37 nM
36 | CO[C@H]1CCC[C@H]1NC(=O)Nc1cc2cc(-c3cnc4c(c3C)NCCO4)c(F)c(N)c2cn1 (single isomer, unassigned) [Compound 729b] | 0.015 nM
37 | Cc1c(-c2cc3cc(NC(=O)N[C@H]4C[C@H]4C)ncc3c(N)c2F)cnc2c1NCCO2 (single isomer, unassigned) [Compound 736a] | < 0.013 nM
38 | Cc1c(-c2cc3cc(NC(=O)N[C@@H]4C[C@@H]4C)ncc3c(N)c2F)cnc2c1NCCO2 (single isomer, unassigned) [Compound 736b] | < 0.013 nM
39 | CO[C@@H]1COCC[C@@H]1NC(=O)Nc1cc2cc(-c3cnc4c(c3C)NCCO4)c(F)c(N)c2cn1 (single isomer, unassigned) [Compound 750a] | 0.96 nM
40 | CO[C@H]1COCC[C@H]1NC(=O)Nc1cc2cc(-c3cnc4c(c3C)NCCO4)c(F)c(N)c2cn1 (single isomer, unassigned) [Compound 750b] | < 0.013 nM
41 | Cc1c(-c2cc3cc(NC(=O)OC4CN(C)C4)ncc3c(N)c2F)cnc2c1NCCO2 [Compound 402, 1-Methylazetidin-3-yl (8-amino-7-fluoro-6-(8-methyl-2,3-dihydro-1H-pyrido[2,3-b][1,4]oxazin-7-yl)isoquinolin-3-yl)carbamate] | 0.11 nM
42 | Cc1c(-c2cc3cc(NC(=O)OC4CCNCC4)ncc3c(N)c2F)cnc2c1NCCO2 [Compound 404, Piperidin-4-yl (8-amino-7-fluoro-6-(8-methyl-2,3-dihydro-1H-pyrido[2,3-b][1,4]oxazin-7-yl)isoquinolin-3-yl)carbamate] | 0.03 nM
43 | Cc1c(-c2cc3cc(NC(=O)OC4CC5COCC(C4)N5C)ncc3c(N)c2F)cnc2c1NCCO2 (stereo not shown) [Compound 406, 9-Methyl-3-oxa-9-azabicyclo[3.3.1]nonan-7-yl (8-amino-7-fluoro-6-(8-methyl-2,3-dihydro-1H-pyrido[2,3-b][1,4]oxazin-7-yl)isoquinolin-3-yl)carbamate] | 0.4 nM

Same assay, conditions: HPK1 Ki, ATP 1 mM

Row | SMILES | Ki
44 | Cc1c(-c2cc3cc(NC(=O)N[C@H]4CCOC[C@H]4F)ncc3c(N)c2F)cnc2c1NCCO2 (single isomer, unassigned) [Compound 747a] | < 0.013 nM
45 | Cc1c(-c2cc3cc(NC(=O)N[C@@H]4CCOC[C@@H]4F)ncc3c(N)c2F)cnc2c1NCCO2 (single isomer, unassigned) [Compound 747b] | < 0.013 nM
46 | Cc1c(-c2cc3cc(NC(=O)O[C@H]4CCOC4)ncc3c(N)c2F)cnc2c1NCCO2 [Compound 403b, (S)-Tetrahydrofuran-3-yl (8-amino-7-fluoro-6-(8-methyl-2,3-dihydro-1H-pyrido[2,3-b][1,4]oxazin-7-yl)isoquinolin-3-yl)carbamate] | 0.064 nM
